Like-named read-outs stand apart in the source and are kept apart here.
Molecular target: purified recombinant human FGFR2 protein (Homo sapiens (Human), UniProt P21802)
Experiment: Measurement of inhibitory effect on FGFR2 kinase activity
Type: biochemical
Description: Measurement of Inhibitory Effect on FGFR2 Kinase Activity
EDTA (final concentration: 30 mM) diluted with a separation buffer (Caliper Life Sciences, Inc.) was added thereto to terminate the kinase reaction. […] The level of phosphorylation was determined from the quantitative ratio.

Chain of purified recombinant human FGFR2 protein (P21802 22-821): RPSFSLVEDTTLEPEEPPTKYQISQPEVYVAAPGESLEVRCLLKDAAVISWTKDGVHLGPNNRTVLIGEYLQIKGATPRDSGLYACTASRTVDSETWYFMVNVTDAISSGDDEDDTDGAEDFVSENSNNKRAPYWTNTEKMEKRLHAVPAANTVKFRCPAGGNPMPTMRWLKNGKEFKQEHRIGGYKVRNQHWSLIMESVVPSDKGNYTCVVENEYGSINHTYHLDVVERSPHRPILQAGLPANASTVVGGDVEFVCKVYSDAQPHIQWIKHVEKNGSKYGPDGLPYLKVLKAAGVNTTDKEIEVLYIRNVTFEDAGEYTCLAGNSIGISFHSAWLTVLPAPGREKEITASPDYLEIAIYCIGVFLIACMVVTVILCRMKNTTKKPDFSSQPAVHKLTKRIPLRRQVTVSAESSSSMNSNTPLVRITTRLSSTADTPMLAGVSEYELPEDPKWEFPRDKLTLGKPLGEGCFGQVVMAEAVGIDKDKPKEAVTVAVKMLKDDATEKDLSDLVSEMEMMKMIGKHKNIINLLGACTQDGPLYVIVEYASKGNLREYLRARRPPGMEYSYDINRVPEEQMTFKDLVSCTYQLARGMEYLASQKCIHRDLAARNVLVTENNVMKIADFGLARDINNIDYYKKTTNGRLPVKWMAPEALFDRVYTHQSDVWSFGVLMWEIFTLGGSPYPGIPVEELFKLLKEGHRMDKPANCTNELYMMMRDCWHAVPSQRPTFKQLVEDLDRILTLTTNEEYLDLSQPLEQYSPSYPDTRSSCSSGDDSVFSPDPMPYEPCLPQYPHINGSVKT

Structure (SMILES) | IC50 [µM] | IC50 (FGFR2 kinase, FL-Peptide 22 substrate, ATP 75 μM, 25° C. for 120 minutes) [µM]
C=CC(=O)N1C[C@@H](n2cc(C#Cc3cc(OC)cc(OC)c3)c3c(N)ncnc32)C[C@H]1C(=O)OC [Ex. Compound 66, (2S,4S)-methyl 1-acryloyl-4-(4-amino-5-((3,5-dimethoxyphenyl)ethynyl)-7H-pyrrolo[2,3-d]pyrimidin-7-yl)pyrrolidine-2-carboxylate] | < 0.0003 | –
CC(C)c1cc(C#Cc2nn([C@H]3CCN(C(=O)/C=C/CN(C)C)C3)c3ncnc(N)c23)cc(C(C)C)c1 [Ref. Ex. Compound 4, (S)-1-(3-(4-amino-3-((3,5-diisopropylphenyl)ethynyl)-1H-pyrazolo[3,4-d]pyrimidin-1-yl)pyrrolidin-1-yl)-4-(dimethylamino)but-2-en-1-one] | – | > 10

— US9108973B2, “3,5-disubstituted alkynylbenzene compound and salt thereof” (Taiho Pharmaceutical Co., Ltd., priority 2012, dated 2015)
